Assays:
[1] = system: MCF7; experiment: Antiproliferative activity against human MCF7 cells assessed as inhibition of cell growth incubated for 24 hrs by MTT assay; type: functional, cell-based; conditions: MCF7, 24 h
[2] = system: MDA-MB-231; experiment: Antiproliferative activity against human MDA-MB-231 cells assessed as inhibition of cell growth incubated for 24 hrs by MTT assay; type: functional, cell-based; conditions: MDA-MB-231, 24 h
[3] = system: Rattus norvegicus; experiment: Toxicity in Sprague-Dawley rat inoculated with rat LA7 cells assessed as increase in uterine tissue at 10 mg/kg administered daily for 21 days; type: organism-based; conditions: in vivo, 504 h, time 21 day

## COc1ccc(C[C@H]2COc3ccccc3N2Cc2ccc(OCCN3CCCCC3)cc2)cc1
[1]
  IC50: 0.68 µM
[2]
  IC50: 11 µM

## COc1ccc(C[C@H]2COc3cc(F)c(F)cc3N2Cc2ccc(OCCN3CCCC3)cc2)cc1
[1]
  IC50: 3.35 µM
[2]
  IC50: 3.22 µM

## COc1ccc(C[C@H]2CSc3ccccc3N2Cc2ccc(OCCN3CCCC3)cc2)cc1
[1]
  IC50: 30.8 µM
[2]
  IC50: 10.9 µM

## COc1ccc(C[C@H]2COc3ccc(F)cc3N2Cc2ccc(OCCN3CCCC3)cc2)cc1
[1]
  IC50: 3.34 µM
[2]
  IC50: 3.23 µM

## COc1ccc(C[C@H]2COc3ccccc3N2Cc2ccc(OCCN3CCCCCC3)cc2)cc1
[1]
  IC50: 18.1 µM
[2]
  IC50: 10.1 µM

## COc1ccc(C[C@H]2COc3ccccc3N2Cc2ccc(OCCN(C(C)C)C(C)C)cc2)cc1
[1]
  IC50: 77.6 µM
[2]
  IC50: 0.83 µM

## COc1ccc(C[C@H]2COc3ccc(OC)cc3N2Cc2ccc(OCCN3CCCCC3)cc2)cc1
[1]
  IC50: 2.6 µM
[2]
  IC50: 2.64 µM

## Oc1ccc(C[C@H]2COc3ccccc3N2Cc2ccccc2)cc1
[1]
  IC50: 41.6 µM
[2]
  IC50: 32.5 µM

## COc1ccc(C[C@H]2COc3ccccc3N2Cc2ccc(OCCO)cc2)cc1
[1]
  IC50: 43.7 µM
[2]
  IC50: > 50 µM

## COc1ccc(C[C@H]2CSc3ccccc3N2Cc2ccc(OCCN(C)C)cc2)cc1
[1]
  IC50: 28.8 µM
[2]
  IC50: 25.5 µM

## c1ccc(CN2c3ccccc3OC[C@@H]2Cc2ccc(OCCN3CCCCC3)cc2)cc1
[1]
  IC50: 22 µM
[2]
  IC50: > 50 µM

## CCN(CC)CCOc1ccc(CN2c3ccccc3SC[C@@H]2Cc2ccc(OC)cc2)cc1
[1]
  IC50: 31.7 µM
[2]
  IC50: 26.7 µM

## CC(=O)O[C@H]1C(=O)[C@@]2(C)[C@H]([C@H](OC(=O)c3ccccc3)[C@]3(O)C[C@H](OC(=O)[C@H](O)[C@@H](NC(=O)c4ccccc4)c4ccccc4)C(C)=C1C3(C)C)[C@]1(OC(C)=O)CO[C@@H]1C[C@@H]2O [PACLITAXEL]
[2]
  IC50: 3.77 µM

## COc1ccc(C[C@H]2COc3ccccc3N2Cc2ccc(OS(=O)(=O)c3ccc(C)cc3)cc2)cc1
[1]
  IC50: > 50 µM
[2]
  IC50: > 50 µM

## COc1ccc(C[C@H]2COc3ccccc3N2Cc2ccc(OCCN3CCOCC3)cc2)cc1
[1]
  IC50: 83.6 µM
[2]
  IC50: 31.3 µM

## CCN1c2ccccc2OC[C@@H]1Cc1ccc(O)cc1
[1]
  IC50: 30.4 µM
[2]
  IC50: 43.6 µM

## COc1ccc(C[C@H]2COc3ccccc3N2Cc2ccccc2)cc1
[1]
  IC50: > 50 µM
[2]
  IC50: > 50 µM

## CCN(CC)CCOCCOc1ccc(CN2c3ccccc3OC[C@@H]2Cc2ccc(OC)cc2)cc1
[1]
  IC50: 39.1 µM
[2]
  IC50: 45 µM

## COc1ccc(C[C@H]2COc3ccc(C(F)(F)F)cc3N2Cc2ccc(OCCN3CCCCC3)cc2)cc1
[1]
  IC50: 6.1 µM
[2]
  IC50: 6.36 µM

## CN(C)CCOc1ccc(C[C@H]2COc3ccccc3N2C)cc1
[1]
  IC50: > 50 µM
[2]
  IC50: > 50 µM

## COc1ccc(C[C@H]2CSc3ccccc3N2Cc2ccc(OCCN(C(C)C)C(C)C)cc2)cc1
[1]
  IC50: > 50 µM
[2]
  IC50: > 50 µM

## Oc1ccc(C[C@H]2COc3ccccc3N2)cc1
[1]
  IC50: > 50 µM
[2]
  IC50: 47.4 µM

## COc1ccc(C[C@H]2COc3ccccc3N2Cc2ccc(OCCOCCN(C(C)C)C(C)C)cc2)cc1
[1]
  IC50: 5.5 µM
[2]
  IC50: > 50 µM

## COc1ccc(C[C@H]2COc3ccc(C(F)(F)F)cc3N2Cc2ccc(OCCN3CCCC3)cc2)cc1
[1]
  IC50: 6.86 µM
[2]
  IC50: 6.89 µM

## c1ccc(CN2c3ccccc3OC[C@@H]2Cc2ccc(OCCN3CCCC3)cc2)cc1
[1]
  IC50: 21.1 µM
[2]
  IC50: > 50 µM

## CN1c2ccccc2OC[C@@H]1Cc1ccc(OCCN2CCCC2)cc1
[1]
  IC50: > 50 µM
[2]
  IC50: > 50 µM

## COc1ccc(C[C@H]2COc3ccccc3N2Cc2ccc(OCCN(C)C)cc2)cc1
[1]
  IC50: 6.75 µM
[2]
  IC50: 11.1 µM

## COc1ccc(C[C@@H]2COc3ccccc3N2Cc2ccc(OCCN3CCCCC3)cc2)cc1
[1]
  IC50: 6.3 µM
[2]
  IC50: 4.87 µM

## COc1ccc(C[C@@H]2COc3ccccc3N2Cc2ccc(OCCN3CCCC3)cc2)cc1
[1]
  IC50: 7.03 µM
[2]
  IC50: 6.52 µM

## CN(C)CCOc1ccc(C[C@H]2COc3ccccc3N2Cc2ccccc2)cc1
[1]
  IC50: 20.5 µM
[2]
  IC50: > 50 µM

## COc1ccc(C[C@H]2COc3ccc(OC)cc3N2Cc2ccc(OCCN3CCCC3)cc2)cc1
[1]
  IC50: 3.34 µM
[2]
  IC50: 3.59 µM

## CC(C)N(CCOc1ccc(C[C@H]2COc3ccccc3N2Cc2ccccc2)cc1)C(C)C
[1]
  IC50: 40.4 µM
[2]
  IC50: > 50 µM

## COc1ccc(C[C@H]2COc3ccccc3N2C)cc1
[1]
  IC50: > 50 µM
[2]
  IC50: > 50 µM

## COc1ccc(C[C@H]2COc3ccccc3N2Cc2ccc(O)cc2)cc1
[1]
  IC50: 24.4 µM
[2]
  IC50: 40.2 µM

## COc1ccc(C[C@H]2COc3ccccc3N2Cc2ccc(OCCOCCN3CCCCC3)cc2)cc1
[1]
  IC50: 7.81 µM
[2]
  IC50: > 50 µM

## COc1ccc(C[C@H]2COc3cc(F)c(F)cc3N2Cc2ccc(OCCN3CCCCC3)cc2)cc1
[1]
  IC50: 5.05 µM
[2]
  IC50: 4.86 µM

## COc1ccc(C[C@H]2COc3ccccc3N2Cc2ccc(OCCOCCN3CCCC3)cc2)cc1
[1]
  IC50: 21.3 µM
[2]
  IC50: > 50 µM

## COc1ccc(C[C@H]2COc3ccc(F)cc3N2Cc2ccc(OCCN3CCCCC3)cc2)cc1
[1]
  IC50: 3.61 µM
[2]
  IC50: 2.92 µM

## COc1ccc(C[C@H]2COc3ccccc3N2C(=O)c2ccc(N)cc2)cc1
[1]
  IC50: > 50 µM
[2]
  IC50: > 50 µM

## COc1ccc(C[C@H]2COc3ccccc3N2)cc1
[1]
  IC50: > 50 µM
[2]
  IC50: 36.4 µM

## CC/C(=C(\c1ccccc1)c1ccc(OCCN(C)C)cc1)c1ccccc1 [TAMOXIFEN]
[3]
  Activity: Toxic
[1]
  IC50: 5.4 µM

## COc1ccc(C[C@H]2CSc3ccccc3N2Cc2ccc(OCCN3CCCCC3)cc2)cc1
[1]
  IC50: 17.4 µM
[2]
  IC50: 12.2 µM

## CCN(CC)CCOc1ccc(CN2c3ccccc3OC[C@@H]2Cc2ccc(OC)cc2)cc1
[1]
  IC50: 6.95 µM
[2]
  IC50: 0.97 µM

## CN1c2ccccc2OC[C@@H]1Cc1ccc(OCCN2CCCCC2)cc1
[1]
  IC50: > 50 µM
[2]
  IC50: > 50 µM

## Oc1ccc(C[C@H]2COc3ccccc3N2Cc2ccc(O)cc2)cc1
[1]
  IC50: 24.4 µM
[2]
  IC50: 40.2 µM

## CCN1c2ccccc2OC[C@@H]1Cc1ccc(OCCN2CCCC2)cc1
[1]
  IC50: 45.8 µM
[2]
  IC50: > 50 µM
